Positions of bridges follow the written chain, without caps; N, C: chain ends. No end group written: not given here.
T1: RANKL (Homo sapiens, UniProt O14788)
T1 sequence (O14788 140-317 limits assumed): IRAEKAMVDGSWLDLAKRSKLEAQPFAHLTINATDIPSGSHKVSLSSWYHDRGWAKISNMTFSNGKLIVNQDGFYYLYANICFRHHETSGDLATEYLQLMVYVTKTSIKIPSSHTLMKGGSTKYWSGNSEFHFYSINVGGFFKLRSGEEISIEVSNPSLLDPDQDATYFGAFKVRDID

B1: TGF-β3: TGF-β3 (R&D), protein belonging to the TGF-β superfamily (protein, UniProt P10600 301-412, looked up)
Transforming growth factor …: ALDTNYCFRNLEENCCVRPLYIDFRQDLGWKWVHEPKGYYANFCSGPCPYLRSADTTHSTVLGLYNTLNPEASASPCCVPQDLEPLTILYYVGRTPKVEQLSNMVVKSCKCS

Tests used:
[1] = system: human mesenchymal stem cells; assay: Induction of human mesenchymal stem cell differentiation, alcian blue staining; assay type: cell-based; details: 100 μM peptide D, 14 days
Description: Human mesenchymal stem cells were seeded at 5×10^4 cells/well in 48-well plate (IWAKI). The culture supernatant was removed 24 hours later, the medium was replaced with a chondrocyte differentiation induction medium (Lonza), and the medium was replaced with fresh medium every 3 or 4 days. Simultaneously, peptide D was added at 100 μM (the group to which peptide D was administered). Further, a group cultured with 100 μM peptide D and 1 ng/ml BMP-4 (R&D) was examined. BMP-4 was added at 1 ng/ml as a positive control group. After 14 days, these cells were fixed in 10% neutral buffered formalin. After fixation, the cells were stained with an alcian blue solution for 4 hours, and the culture plate was photographed. Moreover the pigment was eluted using a 6M guanidinium hydrochloride solution from the culture plate. The eluate (100 μl) was moved to a new 96-well plate, and measured the absorbance at 620 nm by microplate reader (BMG Labtech).

[2] = system: ATDC5 cells; assay: GeneChip analysis using ATDC5 cells; assay type: cell-based, mouse; details: 100 μM peptide D, signal ratio to control group
Description: The peptide described in Example 1 was used. The ATDC5 cells described in Example 2 were used as cultured cells. The ATDC5 cells were seeded in a 6-cm dish (IWAKI) at 1×10^5 cells/well. The culture supernatant was removed 72 hours later, and DMEM/F-12 medium containing 10 ng/ml insulin (Roche) and 10 ng/ml transferrin (Roche) was added. The medium was replaced with fresh medium every 3 or 4 days.
Simultaneously, peptide D was added at 100 μM. The medium was removed 4 days and 7 days after the induction of differentiation. The cells were washed with PBS, and RNA of these cells was obtained using the Absolutely RNA Miniprep Kit (Stratagene) 7 days after the induction of differentiation. The extracted RNA was subjected to GeneChip analysis (Affimetrix, Kurabo).

[3] = target: T1, RANKL; details: Aoki et al., J. Clin. Invest., 116: 1525, 2006; cited from earlier work
[4] = system: ATDC5 cells; assay: RT-PCR analysis of chondrocytic factors in ATDC5 cells; assay type: cell-based, mouse; details: 200 μM peptide D
Description: Mouse prechondrocytes, ATDC5 cells (5×10^4 cells) were seeded in a 6-cm dish (IWAKI) and cultured in the presence of a cartilage differentiation induction medium containing 10 ng/ml insulin and transferrin for 7 days and for 14 days. The peptide D group was added at 200 μM peptide D, and 5 ng/ml of BMP-4 was added to the positive control group. The cells were washed with PBS after culture, the cells were dissolved in 1 ml TRIZOL […], and the solution was obtained. After 5 min at room temperature, 0.2 ml of chloroform (Wako) was added, followed by vigorous inversion mixing and centrifugation at 4° C. and 12,000×g for 15 minutes. The supernatant was collected in a new tube, and was added to 0.5 ml of isopropanol (Nacalai), followed by inversion mixing. The resultant was left at room temperature for 10 minutes and centrifuged at 4° C. and 12,000×g for 10 minutes. The supernatant was discarded, and the resultant was added to 70% ethanol. After dry-up, RNA was dissolved in 87.5 μl of DEPC water, 10 μl of RDD buffer and 2.5 μl of DNase, and the mixture was allowed to stand at room temperature for 10 minutes. The RNA sample was cleaned by the RNeasy MinElute Cleanup Kit (Qiagen), and the concentration of the obtained RNA was measured using NanoDrop. The obtained RNA (250 ng) was electrophoresed on 1% agarose gel, checked degradation of RNA, and undegradated RNA samples (250 ng each) were used in RT-PCR. RT-PCR was carried out using the ThermoScript RT-PCR System (Invitrogen) and random primers.
After cDNA was synthesized, PCR was carried out using primers specific for the α1 chains of mouse type II collagen (mCol 2α1), mouse type X collagen (mCol X), and mouse aggrecan (mAggrecan). PCR was carried out using mouse GAPDH-specific primers for standardization. The sequences of PCR primers used are shown below. […]
The sample obtained after PCR was electrophoresed on 2% agarose gel, and a specific band was detected by UV with the use of ethidium bromide staining (FIG. 3A and FIG. 4A). The obtained image was analyzed using the CSAnalyzer (ATTO).

[5] = system: human mesenchymal stem cells; assay: GeneChip analysis using human mesenchymal stem cells; assay type: cell-based; details: for aggrecan expression level: 10 ng/ml TGF-β3; for expression levels of Sox9 compared with the control group: 24 hours and 96 hours after the addition
Description: Human mesenchymal stem cells were seeded in a 6-well plate (Nunc) at 1×10^5 cells/well, the culture supernatant was discarded 96 hours later, and 2 ml of a cartilage differentiation induction medium was added. The control group, the 40 μM peptide D group, the 10 ng/ml TGF-β3 group, and the 40 μM peptide D+10 ng/ml TGFβ3 group were prepared. Each culture medium was replaced 24 hours after the stimulation. The cells were dissolved in 1 ml of TRIZOL (Invitrogen) 96 hours after the stimulation, and RNA was isolated. The isolated RNA was used for GeneChip analysis (Affimetrix, Kurabo).

[6] = system: human mesenchymal stem cells; assay: Three-dimensional culture using human mesenchymal stem cells; assay type: cell-based
Description: Chondrocytes are three-dimensionally cultured induce […]. Three dimensional culture system relatively reflected the natural conditions. Human mesenchymal stem cells were seeded at 2.5×10^5 cells in 15-ml tubes (TPP) and the cells were collected by centrifuged at 1,000 rpm and room temperature for 4 minutes. The supernatant was removed and the medium was replaced with 0.5 ml chondrocyte differentiation induction medium (Lonza) with 10 ng/ml TGF-β3 (R&D). The medium was replaced with fresh medium every 3 or 4 days. Simultaneously, peptide D was added at 50 μM and at 150 μM (i.e., a low-dose peptide D group and a high-dose peptide D group). After 14 days, the cells were fixed in 4% PFA (Wako), photographed under a microscope (FIG. 8). A pellet was embedded in paraffin, and the sample slide was prepared, followed by alcian blue staining and safranin 0 staining (FIG. 9).
2.5×10^5 human mesenchymal stem cells were cultured in the presence of 40 μM peptide D and 10 ng/ml TGF-β3 with cartilage differentiation induction medium for 21 days. After the pellets were fixed in 4% PFA, the pellet was photographed under a microscope (FIG. 10). After the pellet had been embedded in paraffin, the sample slide was prepared and stained with alcian blue and safranin 0 (FIG. 11).
After the pellets were fixed in 4% PFA, the pellet was photographed under a microscope (FIG. 12). After the pellet had been embedded in paraffin, the sample slide was prepared and stained with alcian blue and safranin O (FIG. 13).

[7] = system: ATDC5 cells; assay: Induction of differentiation of ATDC5 cells by peptide D, alcian blue staining; assay type: cell-based, mouse; details: peptide D 25 μM and 100 μM, 14 days
Description: The culture cells (ATDC5) derived from a mouse chondrogenic EC (embryonal carcinoma) cell was provided by Professor Hiraki and Associate Professor Shukunami in the Institute for Frontier Medical Sciences, Kyoto University. DMEM/F-12 medium (Cellgro) containing 5% FBS (Nichirei) was used as a maintenance medium.
ATDC5 cells were seeded at 2×10^4 cells/well in a 48-well plate (IWAKI). The culture supernatant was removed 24 hours later, and DMEM/F-12 medium containing 10 ng/ml insulin (Roche) and transferrin (Roche) were added. The medium was replaced with fresh medium every 3 or 4 days.
Simultaneously, peptide D was added at 25 μM and 100 μM. One ng/ml and 5 ng/ml BMP-4 (R&D) were added as positive control. In order to examine the synergistic effects of peptide D and BMP-4, further, 25 μM peptide D and 1 ng/ml BMP-4 were added. After 14 days, these cells were fixed in 10% neutral buffered formalin. After fixation, the cells were stained with an alcian blue solution for 4 hours, and the culture plate was photographed.

[8] = 24 hours after the addition, 40 μM peptide D
[9] = 96 hours after the addition, 40 μM peptide D
[10] = peptide D 50 μM and 150 μM, medium with 10 ng/ml TGF-β3, 14 days

| Molecule | absorbance of the eluate at 620 nm (alcian blue pigment) versus control group [1] | alcian blue positive cells compared with control ([1]; chondrocyte differentiation induction medium) | expression level of BMP-7 [2] | expression levels of CTGF, PDGF, TGFβ1, fibromodulin and receptors (PDGFR1, FGFR2) [2] | expression levels of the α chains of type II, IX, and XI collagens [2] | expression of asporin, IGFbp2, IGFbp6, and ADAMTS5 [2] | binding to RANKL [3] | aggrecan expression level ([4]; day 7, standardized with GAPDH) | expression level of the α chain of type II collagen compared with the control ([4]; day 7, standardized with GAPDH) | expression level of type X collagen ([4]; day 14, standardized with GAPDH) | IGF2R and versican expression ([5]; 40 μM peptide D, 24 hours later) | IGF-1, LTBP2, and TGFβ1 expression levels ([5]; 40 μM peptide D, 96 hours later) | aggrecan expression level [5, 8] | expression levels of Sox9 compared with the control group [5] | aggrecan expression level [5, 9] | alcian blue or safranin O staining of 3-dimensional pellets [6, 10] | pellet size [6, 10] | number of alcian blue positive nodules [7] | pellet size ([6]; 21 days, 40 μM peptide D, 10 ng/ml TGF-β3, 100 ng/ml BMP-2) |
| --- | --- | --- | --- | --- | --- | --- | --- | --- | --- | --- | --- | --- | --- | --- | --- | --- | --- | --- | --- |
| peptide D: cyclic peptide of 9 amino acid residues, SEQ ID NO: 7, two cysteine residues bound by a disulfide bond; binds to RANKL (YCWSQYLCY; disulfide 2-8 (inferred)) | significant increase | increased | increased | increased | increased | inhibited | binds to RANKL | increased | significantly increased | particularly increased | elevated | elevated | elevated | elevated | elevated expression level was maintained | positive stained | increased the pellet size in a dose dependent manner | increased in a dose dependent manner |  |
| B1 |  |  |  |  |  |  |  |  |  |  |  |  | equivalent to that of the control group | elevated | lower than that of the control group |  |  |  | did not change |

From US9435811B2, “Inducer of chondrocyte proliferation and differentiation” (ORIENTAL YEAST CO., LTD, priority 2008, dated 2016)
